Counter-ions that a name gives are not always drawn. Like-named read-outs stand apart in the source and are kept apart here.
How the values were obtained:
[1] = test system: Rat arteries (arterial contractions, entry of calcium ions into the cells of smooth muscles); assay: In vitro anticalcic activity (inhibition of potassium-depolarized, calcium-induced contractions of isolated rat arteries); type: cell-based; conditions: dose inhibiting by 50% the contractions caused by potassium ions (100 mM), 37° C., read-out: CI50 (the source's name)
Procedure: Rat arteries decoupled in a spiral were attached to a tension collector and were maintained in tanks containing 2.5 ml of Krebs-sodium bicarbonate buffer (NaCl: 120.8 mM, KCl: 5.9 mM, MgCl2 : 1.2 mM, NaH2 PO4 : 1.2 mM, NaHCO3 : 15.5 mM, glucose: 12.6 mM), at 37° C. covered with a 95%-5% oxygen-carbon dioxide mixture. The preparations were depolarized with a buffered solution containing 100 mM of potassium ions (NaCl: 26.7 mM, KCl: 100 mM, MgCl2 : 1.2 mM, NaH2 PO4 : 1.2 mM, NaHCO3 : 15.5 mM, glucose 12.6 mM).
A volume of 25 μl of calcium chloride was added to the mixture in a manner to obtain a range of increasing concentrations of calcium ions from 0.1 to 3.0 mM and the contractions of the artery were measured to obtain a control. The operation with range of calcium ions was repeated every 15 minutes and the preparation was washed 4 times after each range. When a stable response was obtained, the operation with the range of calcium ions was effected in the presence of varying concentrations of test compounds until a stable response was obtained.
The arterial contractions depend on the entry of calcium ions into the cells of smooth muscles and are provoked by depolarization of smooth muscles by potassium ions and by action of noradrenaline freed by presynapthic level. By recommencing the operation with denerved arteries by the action of 6-hydroxy-dopamine, the specific action due to noradrenaline is suppressed.

mice = assay: Acute toxicity (DL0, oral); type: in vivo, mouse; design: unit not given here
[2] = test system: carotidien arterial pressure in rats; assay: Hypotensive activity (carotidien arterial pressure in anesthesized rats); type: in vivo, rat (Wistar); conditions: rat, intravenous
Procedure: The hypotensive activity was studied on male rats of the Wistar strain weighing about 300 g and anesthesized with 50 mg/kg of nembutal intraveinously. The test products were administered intraveinously by the jugular vein and the carotidien arterial pressure was measured before and after administration of the test compounds. The variations expressed in percentage of arterial pressure after administration with respect to the initial pressure is reported in Table IV.

[3] = test system: cardiac rhythm troubles in guinea pigs; assay: Antiarythmic action (K-strophanthine and adrenaline induced cardiac rhythm troubles); type: in vivo, guinea pig; conditions: Cavia porcellus, 1 h, oral 10 mg/kg, one hour before K-strophanthine and adrenaline perfusion, read-out: Percentage of protection (lengthening of the time of appearance of cardiac rhythm troubles as compared to controls)
Procedure: Male guinea pigs weighing between 450 and 500 g were tracheotomized while anesthesized by intraperitoneal administration of […] of urethane and were subjected to artifical respiration of 40 to 50 breaths of 5 ml per minute. Needles were subcutaneously implanted to register an electrocardiogram of the guinea pigs for the signal of D II derivation. The test products were orally administered and one hour later, the jugular vein of the guinea pigs were perfused with 0.5 ml per minute of a solution of 150 γ/ml of K-strophanthine and 0.5 ml per minute of a solution of 5 γ/ml of adrenaline and the number of times of the appearance of cardiac rhythm troubles was noted. The results are expressed in percentage of protection with an oral dose of 10 mg/kg of test product that is to say the percentage of lengthening of the time of appearance of cardiac rhythm troubles as compared to the controls.

[4] = 1 min, 1 minute, read-out: % Variation of arterial pressure after administration, 1 minute
[5] = 5 min, 5 minutes, read-out: % Variation of arterial pressure after administration, 5 minutes
[6] = 10 min, 10 minutes, read-out: % Variation of arterial pressure after administration, 10 minutes
[7] = 0.5 h, 30 minutes, read-out: % Variation of arterial pressure after administration, 30 minutes

Structure (SMILES) | IC50 [1] [nM] | DL0 (maximum dose which did not cause any deaths after 8 days) (mice) | change in vivo at 1 mg/kg [2, 4] [%] | change in vivo at 1 mg/kg [2, 5] [%] | change in vivo at 1 mg/kg [2, 6] [%] | change in vivo at 1 mg/kg [2, 7] [%] | change in vivo at 10 mg/kg [3] [%]
C=CCOc1ccccc1OCC(O)CN1CC=C(c2c[nH]c3ccccc23)CC1 (stereo not drawn) [Example 24, 4-(1H--indol-3-yl)-α-[2-prop-2-enyloxy)-phenoxymethyl]-1,2,3,6,tetrahydropyridine-1-ethanol fumarate] | 700 | > 200 | -10 | -16 | -11 | -17 | –
OC(COc1ccc(Cl)c(Cl)c1)CN1CCC(c2c[nH]c3ccccc23)CC1 (stereo not drawn) [Example 29, 4-(1H--indol-3-yl)-α-[3,4-dichlorophenoxymethyl]-piperidine-1-ethanol hydrochloride] | 2400 | > 100 | – | – | – | – | 53
Cc1cccc(OCC(O)CN2CCC(c3c[nH]c4ccccc34)CC2)c1 (stereo not drawn) [Example 18, 4-(1H--indol-3-yl)-α-[3-methylphenoxymethyl]-piperidine-1-ethanol hydrochloride] | 2000 | > 100 | – | – | – | – | 23
COc1ccccc1OCC(O)CN1CCC(c2c[nH]c3ccccc23)CC1 (stereo not drawn) [Example 14, 4-(1H--indol-3-yl)-α-[2-methoxyphenoxymethyl]-piperidine-1-ethanol hydrochloride] | 11000 | > 100 | – | – | – | – | 83
Nc1ccccc1OCC(O)CN1CCC(c2c[nH]c3ccccc23)CC1 (stereo not drawn) [Example 19, 4-(1H--indol-3-yl)-α-[2-amino-phenoxymethyl]-piperidine-1-ethanol fumarate] | – | > 100 | – | – | – | – | 165
C=CCOc1cccc(OCC(O)CN2CCC(c3c[nH]c4ccccc34)CC2)c1 (stereo not drawn) [Example 28, 4-(1H--indol-3-yl)-α-[3-(prop-2-enyloxy)-phenoxymethyl]-piperidine-1-ethanol hydrochloride] | 2400 | > 100 | -5 | -10 | -6 | -9 | 103
COc1ccc(OCC(O)CN2CCC(c3c[nH]c4ccccc34)CC2)cc1OC (stereo not drawn) [Example 27, 4-(1H--indol-3-yl)-α-[3,4-dimethoxyphenoxymethyl]-piperidine-1-ethanol hydrochloride] | – | 80 | – | – | – | – | 115
C=CCOc1ccccc1OCC(O)CN1CCC(c2c[nH]c3ccc(OC)cc23)CC1 (stereo not drawn) [Example 32, 4-(5-methoxy-1H--indol-3-yl)-α -2-(prop-2-enyloxy)-phenoxymethyl]-piperidine-1-ethanol fumarate] | 1900 | – | – | – | – | – | 20
C=CCOc1ccc(OCC(O)CN2CCC(c3c[nH]c4ccccc34)CC2)cc1 (stereo not drawn) [Example 26, 4-(1H--indol-3-yl)-α-[4-prop-2-enyloxy)-phenoxymethyl]-piperidine-1-ethanol hydrochloride] | 1500 | > 200 | – | – | – | – | 68
C=CCOc1ccccc1OCC(O)CN1CCC(c2cn(C)c3ccccc23)CC1 (stereo not drawn) [Example 31, 4-(1-methyl-1H--indol-3-yl)-α-[2-(prop-2-enyloxy)-phenoxymethyl]-piperidine-1-ethanol fumarate] | 3000 | – | – | – | – | – | 49
OC(COc1ccccc1)CN1CCC(c2c[nH]c3ccccc23)CC1 (stereo not drawn) [Example 3, 4-(1H--indol-3-yl)-α-[phenoxymethyl]-piperidine-1-ethanol hydrochloride] | 2500 | – | – | – | – | – | 55
Oc1cccc(OCC(O)CN2CCC(c3c[nH]c4ccccc34)CC2)c1 (stereo not drawn) [Example 30, 4-(1H--indol-3-yl)-α-[3-hydroxyphenoxymethyl]-piperidine-1-ethanol hydrochloride] | – | > 100 | – | – | – | – | 86
